ED50 and IC50 data for 17 compounds are collected here from ChEMBL document CHEMBL1124594, “4-(Phosphonoalkyl)- and 4-(phosphonoalkenyl)-2-piperidinecarboxylic acids: synthesis, activity at N-methyl-D-aspartic acid receptors, and anticonvulsant activity” (J Med Chem, 1989).

Assay [1] deals with Mus musculus. Kind of assay: Effective dose of the intraperitoneally administered compound causing loss of traction reflex, was tested in N-methyl-D-aspartic acid convulsions model. The note with it: ip. The assay is classed as functional.
In assay [2] the test system is Mus musculus. The assay is described as follows: Effective dose of the intraperitoneally administered compound protecting mice against tonic seizures, was tested in N-methyl-D-aspartic acid convulsions model. The class given is functional. The note with it: ip.
For assay [3], the target named is Glutamate NMDA receptor. The assay is described as follows: Inhibition of [3H]-CGS- 19755 binding to N-methyl-D-aspartic acid receptors in rat crude synaptic membranes. The assay is classed as cell membranes, Membrane.
In assay [4] the target is Glutamate NMDA receptor. Kind of assay: Inhibition of [3H]-CGS- 19755 binding to N-methyl-D-aspartate glutamate receptor in rat crude synaptic membranes. The assay is classed as cell membranes, Membrane.

As a reminder, the ED50 is the dose at which the effect has come halfway, by size or by number of responders. Read a low ED50 as greater potency. As a reminder, the IC50 is the concentration at which inhibition is half-maximal. Read a high IC50 as weaker potency.

Where only a bound is given, the exact number is not on record here.

Regarding `O=C(O)C1CN(CCCP(=O)(O)O)CCN1` (stereo not drawn), the ED50 is 6.1 mg/kg in the assay on Mus musculus [1] and 1.9 mg/kg in the assay on Mus musculus [2]. Further, at Glutamate NMDA receptor [3], the IC50 is 0.22 µM.
On to `O=C(O)[C@H]1C[C@@H](/C=C/CP(=O)(O)O)CCN1`, for which the ED50 amounted to 1.9 mg/kg with Mus musculus [1] and 1.2 mg/kg in the assay on Mus musculus [2]. The compound further showed an IC50 on Glutamate NMDA receptor [4] of 0.014 µM.
With `CC([C@H]1CCN[C@@H](C(=O)O)C1)P(=O)(O)O` (stereo partly drawn), the ED50 with Mus musculus [1] came to 64 mg/kg; in the assay on Mus musculus [2] it was 21 mg/kg. Besides, at Glutamate NMDA receptor [4], the IC50 is 0.8 µM.
With `C[C@@H]1C[C@H](CP(=O)(O)O)C[C@H](C(=O)O)N1`, the median effective dose (ED50) in the assay on Mus musculus [1] came out at 84 mg/kg; in the assay on Mus musculus [2] it was 34 mg/kg. For the same compound, the IC50 on Glutamate NMDA receptor [4] is 1.6 µM.
Consider `O=C(O)[C@H]1C[C@H](/C=C/CP(=O)(O)O)CCN1`, for which the ED50 in the assay on Mus musculus [1] was determined as 14 mg/kg; in the assay with Mus musculus [2], 8.3 mg/kg. This compound also displayed an IC50 on Glutamate NMDA receptor [4] of 0.039 µM.
Take `C[C@H]1CN[C@@H](C(=O)O)C[C@H]1CP(=O)(O)O`: the ED50 in the assay with Mus musculus [1] was found to be 29 mg/kg; in the assay with Mus musculus [2], 7.1 mg/kg. Further, the IC50 on Glutamate NMDA receptor [4] was found to be 0.078 µM.
The matching figures for `O=C(O)[C@H]1C[C@H](C/C=C/P(=O)(O)O)CCN1`: 20 mg/kg, 10 mg/kg and 0.08 µM.
As to `CC(C)([C@H]1CCN[C@@H](C(=O)O)C1)P(=O)(O)O`, the IC50 on Glutamate NMDA receptor [4] was found to be 1.3 µM.
As for `O=C(O)[C@H]1C[C@@H](C/C=C/P(=O)(O)O)CCN1`, the ED50 came to 14 mg/kg in the assay on Mus musculus [1] and 2.5 mg/kg with Mus musculus [2]. The IC50 at Glutamate NMDA receptor [4] amounted to 0.072 µM.
Consider `C[C@H]1[C@@H](CP(=O)(O)O)CCN[C@H]1C(=O)O`, for which the ED50 was determined as 33 mg/kg in the assay on Mus musculus [1] and 26 mg/kg in the assay on Mus musculus [2]. At Glutamate NMDA receptor [4], this compound displayed an IC50 of 1.3 µM.
At Glutamate NMDA receptor [4], `O=C(O)[C@H]1C[C@H](CP(=O)(O)O)CCN1` showed an IC50 of 0.452 µM.
`N[C@H](CCCCCP(=O)(O)O)C(=O)O`: the figures for the ED50 in the assay with Mus musculus [1] and in the assay with Mus musculus [2] were 188 mg/kg and 34 mg/kg, respectively. Also, on Glutamate NMDA receptor [3], the IC50 amounted to 0.912 µM.
For the compound `O=C(O)[C@H]1C[C@@H](CCCP(=O)(O)O)CCN1`, the ED50 in the assay with Mus musculus [1] worked out at 5.4 mg/kg; with Mus musculus [2], 2 mg/kg. Moreover, the IC50 at Glutamate NMDA receptor [3] was determined as 0.098 µM.
On Glutamate NMDA receptor [4], `O=C(O)[C@H]1C[C@H](CCCP(=O)(O)O)CCN1` displayed an IC50 of 0.105 µM.
As to `CN1CC[C@H](CP(=O)(O)O)C[C@@H]1C(=O)O`, at Glutamate NMDA receptor [4], the IC50 is 28 µM.
Regarding `N[C@@H](CCCP(=O)(O)O)C(=O)O`, the ED50 in the assay on Mus musculus [1] and in the assay with Mus musculus [2] was more than 154 mg/kg throughout. The IC50 on Glutamate NMDA receptor [3] is 0.35 µM.
As for `O=C(O)[C@@H]1C[C@H](CP(=O)(O)O)CCN1` [SELFOTEL], the ED50 in the assay with Mus musculus [1] amounted to 5.4 mg/kg; in the assay with Mus musculus [2], 2.1 mg/kg. Also, the IC50 on Glutamate NMDA receptor [3] stood at 0.032 µM.
